This is an account of results in ChEMBL document CHEMBL1126797 (J Med Chem, 1993).

By pIC50 is commonly meant the negative decadic logarithm of the IC50, by convention in mol/L. A high value points to a small IC50.

Series [1] concerns L1210. The series is described as follows: Log of initial tumor cell population minus log of tumor cell population at end of treatment after i.v. drug dosing on hours 1 and 5. Type of series: functional, Mus musculus.
Series [2] relates to Mus musculus. The series is described as follows: Toxic dose in L1210 lymphoid leukemic mice at dose of 20 mg/kg after i.v. drug dosing on hours 1 and 5; NT means not toxic. The class given is toxicity, organism-based. Also on record: dose 20 mg/kg, route intravenous. The settings on record: in vivo, iv.
In series [3] the test system is Mus musculus. The series is described as follows: Highest active dose in L1210 lymphoid leukemic mice at dose range of 2.5-20 mg/kg after i.v. drug dosing on hours 1 and 5. The class given is functional.
Series [4] deals with Mus musculus. The series is described as follows: Number of L1210 mice cured after i.v. drug dosing on hours 1 and 5. The class given is functional.
The test system of series [5] is Mus musculus. The series is described as follows: Median survival time of treated/control L1210 leukemic mice after i.v. drug dosing on hours 1 and 5. Type of series: functional.
In another series the target is T1, DNA topoisomerase 1 (Homo sapiens, UniProt P11387).
T1 sequence (P11387 whole entry): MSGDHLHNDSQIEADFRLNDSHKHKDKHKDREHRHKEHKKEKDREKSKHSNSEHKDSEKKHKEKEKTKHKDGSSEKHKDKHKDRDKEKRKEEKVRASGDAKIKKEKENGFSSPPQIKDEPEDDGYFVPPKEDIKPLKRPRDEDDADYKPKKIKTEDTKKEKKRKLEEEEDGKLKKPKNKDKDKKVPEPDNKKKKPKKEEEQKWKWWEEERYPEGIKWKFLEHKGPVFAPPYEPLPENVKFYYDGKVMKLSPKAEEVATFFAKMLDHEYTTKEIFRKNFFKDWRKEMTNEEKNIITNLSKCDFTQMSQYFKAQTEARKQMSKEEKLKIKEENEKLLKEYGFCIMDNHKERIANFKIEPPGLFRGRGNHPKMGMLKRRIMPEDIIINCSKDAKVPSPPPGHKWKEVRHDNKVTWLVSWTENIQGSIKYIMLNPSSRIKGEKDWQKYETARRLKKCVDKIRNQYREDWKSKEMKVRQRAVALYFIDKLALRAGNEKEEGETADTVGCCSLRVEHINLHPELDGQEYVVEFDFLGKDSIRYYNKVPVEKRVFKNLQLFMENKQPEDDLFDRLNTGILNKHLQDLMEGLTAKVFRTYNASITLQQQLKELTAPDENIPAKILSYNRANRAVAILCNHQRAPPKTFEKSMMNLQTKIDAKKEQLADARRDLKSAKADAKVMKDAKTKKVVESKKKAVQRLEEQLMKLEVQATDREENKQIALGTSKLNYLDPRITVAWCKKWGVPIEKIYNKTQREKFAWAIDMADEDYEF
Briefly: Inhibition of Topoisomerase I by cleavage complex formation in human HL-60 cells. The class given is cell-based.

In series [6] the test system is L1210. The series is described as follows: Log of initial tumor cell population minus log of tumor cell population at end of treatment in L1210 lymphoid leukemic mice. Type of series: functional, Mus musculus.
The species named for series [7] is Mus musculus. The series is described as follows: Toxic dose in L1210 lymphoid leukemic mice. Type of series: toxicity, organism-based. The settings on record: in vivo.
For series [8], the species on record is Mus musculus. The series is described as follows: Number of L1210 lymphoid leukemic mice cured out of […]. Type of series: functional.
Series [9] deals with Mus musculus. Briefly: Highest active dose in L1210 lymphoid leukemic mice at dose of 5.3-12 mg/kg. Type of series: functional.
The species entered for series [10] is Mus musculus. The series is described as follows: Percent median survival time of treated leukemic mice compared to control. Type of series: functional.
Series [11] relates to Mus musculus. The series is described as follows: Highest active dose in L1210 lymphoid leukemic mice at range of 1.25-20 mg/kg. The class given is functional.
In series [12] the test system is HT-29. The series is described as follows: Tumor volume in HT-29 cells after subcutaneous administration on days 16,20,23,27,30,34,37,41,44,48 at dose of 3.5 mg/kg. Type of series: functional, Homo sapiens.
The nature of series [13]: Number of metastases in K1735-M2 murine melanoma cells after subcutaneous administration on days1,4,6,8 at dose of 3.5 mg/kg. Type of series: functional, Mus musculus.
Series [14] deals with Mus musculus. Briefly: Relative survival in L1210 lymphoid leukemic mice after subcutaneous administration on days 1,4,6,8 at dose of 3.5 mg/kg. The class given is functional.
For series [15], the system named is Mus musculus. Briefly: Relative survival in RAW117-H10 cells implanted mice in comparison to control at dose of 3.5 mg/kg. Type of series: functional.
The test system of series [16] is Mus musculus. Briefly: Highest active dose in L1210 lymphoid leukemic mice at range of 1.35-3.74 mg/kg. The class given is functional.
In series [17] the test system is Mus musculus. Briefly: Highest active dose in L1210 lymphoid leukemic mice at dose of 2-4.5 mg/kg. Type of series: functional.
Series [18] deals with HT-29. The series is described as follows: Tumor volume in HT-29 cells after subcutaneous administration on days 16,20,23,27,30,34,37,41,44,48 at dose of 1.5 mg/kg. Type of series: functional, Homo sapiens.
Series [19] is described as follows: Number of metastases in K1735-M2 murine melanoma cells after subcutaneous administration on days1,4,6,8 at dose of 1.5 mg/kg. Type of series: functional, Mus musculus.
For series [20], the system named is Mus musculus. Briefly: Highest active dose in L1210 lymphoid leukemic mice at dose range of 0.3-1.5 mg/kg. The class given is functional.
Series [21] relates to Mus musculus. Briefly: Relative survival in L1210 lymphoid leukemic mice after subcutaneous administration on days1,4,6,8 at dose of 1.5 mg/kg. The class given is functional.
In series [22] the test system is Mus musculus. Briefly: Relative survival in RAW117-H10 cells implanted mice in comparison to control at dose of 1.5 mg/kg. The class given is functional.

pIC50: −log10 of the molar value.

Regarding `CCC(O)(C(=O)[O-])c1cc2n(c(=O)c1CO)Cc1cc3cc([O-])ccc3nc1-2.[Na+].[Na+]` (stereo not given), the KE with L1210 [1] amounted to 3.24. Further, the Toxic dose result in the series with Mus musculus [2] is listed as “Non-toxic”. Further, in the series on Mus musculus [3], the Highest active dose turned out to be 20 mg/kg. In the series on Mus musculus [4], the Cures is given as 0. The compound further came in with a T/C in the series on Mus musculus [5] of 184%. For the same compound, the pIC50 against DNA topoisomerase 1 was 5.49.
Regarding `CC[C@@]1(O)C(=O)OCc2c1cc1n(c2=O)Cc2cc3ccccc3nc2-1` [CAMPTOTHECIN], the KE in the series on L1210 [6] turned out to be 4.8. Further, the Toxic dose in the series listed under Mus musculus [7] came to 10 mg/kg. In the series filed under Mus musculus [8], this compound returned a Cures of 1. Further, the Highest active dose in the series with Mus musculus [9] is 12 mg/kg. Further, the T/C in the series filed under Mus musculus [10] is 250%.
In the series on L1210 [6], `CCC1(O)C(=O)OCc2c1cc1n(c2=O)Cc2cc3c([N+](=O)[O-])cccc3nc2-1` (stereo not given) displayed a KE of 5.97. This compound also showed a Toxic dose in the series filed under Mus musculus [7] of 40 mg/kg. Further, the Highest active dose in the series on Mus musculus [11] amounted to 10 mg/kg. The compound further showed a Cures in the series filed under Mus musculus [8] of 5. In the series filed under Mus musculus [10], the T/C is recorded as 348%.
Regarding `CC[C@@](O)(C(=O)[O-])c1cc2n(c(=O)c1CO)Cc1cc3c(N)c4c(cc3nc1-2)OCO4.[Na+]`, the Control in the series on HT-29 [12] was determined as 38%; in series [13], 51%. The values for the T/C with Mus musculus [14] and in the series on Mus musculus [15] were 2.56 and 1.75, respectively. Also, the pIC50 at DNA topoisomerase 1 is 5.37.
Consider `CCC1(O)C(=O)OCc2c1cc1n(c2=O)Cc2cc3cc(N)ccc3nc2-1` (racemic), for which the KE in the series with L1210 [6] is reported as 5.97. In the series listed under Mus musculus [7], this compound showed a Toxic dose of 6.25 mg/kg. In the series listed under Mus musculus [8], this compound displayed a Cures of 3. The same compound registered a T/C in the series listed under Mus musculus [10] of 365%. In addition, the Highest active dose in the series on Mus musculus [16] is 3.75 mg/kg.
`CC[C@@]1(O)C(=O)OCc2c1cc1n(c2=O)Cc2cc3cc(N)ccc3nc2-1`: the KE in the series with L1210 [6] is given as >5.99. The Cures in the series filed under Mus musculus [8] was 6. This compound also came in with a Highest active dose in the series with Mus musculus [17] of 4.5 mg/kg. This compound yielded a T/C in the series filed under Mus musculus [10] of 565%. Further, the pIC50 against DNA topoisomerase 1 is 6.85.
Consider `CC[C@@]1(O)C(=O)OCc2c1cc1n(c2=O)Cc2cc3c(N)c4c(cc3nc2-1)OCO4`, for which the Control (in the series on HT-29 [18]; in [19]) was 17% throughout. Further, in the series with L1210 [6], the KE was 5.8. In addition, the Cures in the series listed under Mus musculus [8] was found to be 4. Besides, the Highest active dose in the series on Mus musculus [20] came to 1.5 mg/kg. The results for the T/C in the series listed under Mus musculus [10], in the series on Mus musculus [21] and in the series with Mus musculus [22] were 336%, 1.98 and 1.25, respectively. The compound also gave a pIC50 against DNA topoisomerase 1 of 7.32.
